# Laboratory results as given in publication PMC12655351, “Synthesis and Anticancer Activity Evaluation of New 5-((5-Nitrofuran-2-yl)allylidene)-2-thioxo-4-thiazolidinones” (Pharmaceuticals, 2025).
# Legend:
# NCI/ADR-RES [1] = settings: 48 h
# NCI/ADR-RES [2] = assay: cells; settings: Homo sapiens, 48 h; for CC50: read-out: LC50, NCI/ADR-RES, 48 h
# NCI-H460 = assay: NCI-60 SRB screen; settings: NCI-H460, 48 h; for GI50 / CC50: Homo sapiens; for CC50: read-out: LC50
# CCRF-CEM = settings: 48 h
# NCI-H23 = settings: NCI-H23, 48 h
# HCT-116 = assay: cells; settings: Homo sapiens, HCT-116, 48 h
# HOP-92 = assay: NCI-60 SRB screen; settings: HOP-92, 48 h; for GI50 / CC50: Homo sapiens; for CC50: read-out: LC50, HOP-92, 48 h
# Colon cancer = assay: NCI-60 SRB screen, subpanel; settings: for MG_MID TGI: Colon cancer subpanel; for GI50 / CC50: Homo sapiens; for GI50: read-out: MG_MID GI50; for CC50: read-out: MG_MID LC50
# SK-OV-3 = settings: SK-OV-3, 48 h
# Melanoma [3] = settings: Melanoma subpanel
# Breast cancer = Breast cancer subpanel
# OVCAR-3 = settings: for TGI: OVCAR-3, 48 h
# A498 = settings: A498, 48 h
# OVCAR-8 [4] = settings: OVCAR-8, 48 h
# K-562 = assay: cells; settings: Homo sapiens, K562, 48 h; for GI50: K-562, 48 h; for CC50: read-out: LC50
# SR = settings: 48 h
# OVCAR-4 = assay: cells; settings: Homo sapiens, OVCAR-4, 48 h; for CC50: read-out: LC50, OVCAR-4, 48 h
# UO-31 = assay: cells; settings: Homo sapiens, UO-31, 48 h; for CC50: read-out: LC50, UO-31, 48 h
# CAKI-1 = settings: for TGI: CAKI-1, 48 h
# SF-295 = assay: NCI-60 SRB screen; settings: SF-295, 48 h; for GI50 / CC50: Homo sapiens; for CC50: read-out: LC50, SF-295, 48 h
# Melanoma [5] = assay: cells; settings: Homo sapiens; for GI50: read-out: MG_MID GI50; for CC50: read-out: MG_MID LC50
# UACC-257 = assay: cells; settings: Homo sapiens, UACC-257, 48 h; for CC50: read-out: LC50, UACC-257, 48 h
# RPMI-8226 = assay: cells; settings: Homo sapiens, RPMI-8226, 48 h; for CC50: read-out: LC50
# OVCAR-8 [6] = assay: cells; settings: Homo sapiens, OVCAR-8, 48 h; for CC50: read-out: LC50, OVCAR-8, 48 h
# MDA-MB-231/ATCC = settings: 48 h
# Prostate Cancer = Prostate Cancer subpanel
# HT29 = settings: HT29, 48 h
# T-47D = settings: 48 h
# Ovarian cancer = Ovarian cancer subpanel
# MDA-MB-435 [7] = assay: cells; settings: Homo sapiens, MDA-MB-435, 48 h; for CC50: read-out: LC50, MDA-MB-435, 48 h
# SK-MEL-2 = assay: NCI-60 SRB screen; settings: SK-MEL-2, 48 h; for GI50 / CC50: Homo sapiens; for CC50: read-out: LC50, SK-MEL-2, 48 h
# HL-60(TB) = assay: NCI-60 SRB screen; settings: for TGI / GI50: HL-60(TB), 48 h; for GI50 / CC50: Homo sapiens, HL-60, 48 h; for CC50: read-out: LC50, HL-60(TB), 48 h
# HCT-15 = assay: NCI-60 SRB screen; settings: HCT-15, 48 h; for GI50 / CC50: Homo sapiens; for CC50: read-out: LC50, HCT-15, 48 h
# CNS cancer = assay: cells; settings: Homo sapiens; for GI50: read-out: MG_MID GI50; for CC50: read-out: MG_MID LC50
# 786-0 [8] = assay: cells; settings: Homo sapiens, 786-0, 48 h
# HS 578T = settings: 48 h
# IGROV1 = assay: NCI-60 SRB screen; settings: for GI50 / CC50: Homo sapiens, IGROV-1, 48 h; for GI50 / TGI: IGROV1, 48 h; for CC50: read-out: LC50, IGROV1, 48 h
# MDA-MB-435 [9] = settings: MDA-MB-435, 48 h
# 786-0 [10] = settings: 786-0, 48 h
# SF-539 = settings: for TGI: SF-539, 48 h
smiles,measurement,setting,value
"CC(C)C(C(=O)O)N1C(=O)/C(=C/C=C/c2ccc([N+](=O)[O-])o2)SC1=S (stereo not drawn) [5b, 3-Methyl-2-((Z)-5-((E)-3-(5-nitrofuran-2-yl)allylidene)-4-oxo-2-thioxothiazolidin-3-yl)butanoic acid]",TGI,NCI/ADR-RES [1],4.13 µM
same,GI50,NCI/ADR-RES [2],1.47 µM
same,CC50,NCI/ADR-RES [2],17.5 µM
same,GI50,NCI-H460,1.76 µM
same,CC50,NCI-H460,34.5 µM
same,TGI,NCI-H460,4.93 µM
same,TGI,CCRF-CEM,1.81 µM
same,TGI,NCI-H23,3.41 µM
same,GI50,HCT-116,0.32 µM
same,TGI,HOP-92,4.17 µM
same,GI50,HOP-92,2.13 µM
same,CC50,HOP-92,8.15 µM
same,MG_MID TGI,Colon cancer,2.48 µM
same,GI50,Colon cancer,1.03 µM
same,CC50,Colon cancer,7.06 µM
same,TGI,SK-OV-3,10.7 µM
same,MG_MID TGI,Melanoma [3],2.68 µM
same,MG_MID TGI,Breast cancer,3.46 µM
same,growth GP,"OVCAR-3; OVCAR-3, 10 μM, 48 h",-95.93%
same,TGI,OVCAR-3,2.77 µM
same,TGI,A498,4.81 µM
same,TGI,OVCAR-8 [4],4.78 µM
same,GI50,K-562,0.45 µM
same,CC50,K-562,> 100 µM
same,TGI,SR,1.89 µM
same,GI50,OVCAR-4,2.43 µM
same,CC50,OVCAR-4,26.3 µM
same,GI50,UO-31,1.33 µM
same,CC50,UO-31,7.27 µM
same,growth GP,"CAKI-1; CAKI-1, 10 μM, 48 h",-97.14%
same,TGI,CAKI-1,2.46 µM
same,GI50,SF-295,1.83 µM
same,CC50,SF-295,6.69 µM
same,TGI,SF-295,3.49 µM
same,GI50,Melanoma [5],1.25 µM
same,CC50,Melanoma [5],5.59 µM
same,GI50,UACC-257,1.57 µM
same,CC50,UACC-257,6.8 µM
same,GI50,RPMI-8226,0.35 µM
same,CC50,RPMI-8226,> 100 µM
same,GI50,OVCAR-8 [6],1.49 µM
same,CC50,OVCAR-8 [6],25.1 µM
same,TGI,MDA-MB-231/ATCC,3.03 µM
same,MG_MID TGI,Prostate Cancer,4.67 µM
same,TGI,HT29,2.90 µM
same,TGI,T-47D,3.24 µM
same,MG_MID TGI,Ovarian cancer,5.19 µM
same,GI50,MDA-MB-435 [7],0.85 µM
same,CC50,MDA-MB-435 [7],5.01 µM
same,GI50,SK-MEL-2,1.52 µM
same,CC50,SK-MEL-2,6.02 µM
same,TGI,SK-MEL-2,3.03 µM
same,TGI,HL-60(TB),3.87 µM
same,GI50,HL-60(TB),1.2 µM
same,CC50,HL-60(TB),> 100 µM
same,TGI,HCT-15,2.18 µM
same,GI50,HCT-15,0.73 µM
same,CC50,HCT-15,5.32 µM
same,GI50,CNS cancer,1.28 µM
same,CC50,CNS cancer,5.93 µM
same,GI50,786-0 [8],1.06 µM
same,TGI,HS 578T,7.56 µM
same,GI50,IGROV1,1.78 µM
same,CC50,IGROV1,6.57 µM
same,TGI,IGROV1,3.42 µM
same,TGI,MDA-MB-435 [9],2.17 µM
same,TGI,786-0 [10],3.70 µM
same,growth GP,"SF-539; SF-539, 10 μM, 48 h",-98.47%
same,TGI,SF-539,2.91 µM
"CCCC(C(=O)O)N1C(=O)/C(=C/C=C/c2ccc([N+](=O)[O-])o2)SC1=S (stereo not drawn) [4b, 2-((Z)-5-((E)-3-(5-Nitrofuran-2-yl)allylidene)-4-oxo-2-thioxothiazolidin-3-yl)pentanoic acid]",TGI,NCI/ADR-RES [1],4.96 µM
same,GI50,NCI/ADR-RES [2],2.03 µM
same,CC50,NCI/ADR-RES [2],21.4 µM
same,GI50,NCI-H460,1.7 µM
same,CC50,NCI-H460,6.23 µM
same,TGI,NCI-H460,3.25 µM
same,TGI,CCRF-CEM,7.26 µM
same,TGI,NCI-H23,4.11 µM
same,GI50,HCT-116,1.82 µM
same,TGI,HOP-92,7.69 µM
same,GI50,HOP-92,2.63 µM
same,CC50,HOP-92,31.9 µM
same,MG_MID TGI,Colon cancer,3.41 µM
same,GI50,Colon cancer,1.73 µM
same,CC50,Colon cancer,6.48 µM
same,TGI,SK-OV-3,18.7 µM
same,MG_MID TGI,Melanoma [3],3.41 µM
same,MG_MID TGI,Breast cancer,5.00 µM
same,TGI,OVCAR-3,5.39 µM
same,TGI,A498,7.21 µM
same,TGI,OVCAR-8 [4],4.64 µM
same,GI50,K-562,2.77 µM
same,CC50,K-562,> 100 µM
same,TGI,SR,8.87 µM
same,GI50,OVCAR-4,6.03 µM
same,CC50,OVCAR-4,44.3 µM
same,GI50,UO-31,1.63 µM
same,CC50,UO-31,6.78 µM
same,TGI,CAKI-1,3.70 µM
same,GI50,SF-295,2.2 µM
same,CC50,SF-295,25.7 µM
same,TGI,SF-295,6.76 µM
same,GI50,Melanoma [5],1.67 µM
same,CC50,Melanoma [5],7.32 µM
same,GI50,UACC-257,1.96 µM
same,CC50,UACC-257,14.8 µM
same,GI50,RPMI-8226,1.79 µM
same,CC50,RPMI-8226,> 100 µM
same,GI50,OVCAR-8 [6],1.98 µM
same,CC50,OVCAR-8 [6],13 µM
same,TGI,MDA-MB-231/ATCC,4.29 µM
same,MG_MID TGI,Prostate Cancer,8.56 µM
same,TGI,HT29,3.81 µM
same,TGI,T-47D,5.49 µM
same,MG_MID TGI,Ovarian cancer,8.71 µM
same,GI50,MDA-MB-435 [7],1.62 µM
same,CC50,MDA-MB-435 [7],6.77 µM
same,GI50,SK-MEL-2,1.53 µM
same,CC50,SK-MEL-2,5.89 µM
same,TGI,SK-MEL-2,3.00 µM
same,TGI,HL-60(TB),6.43 µM
same,GI50,HL-60(TB),2.17 µM
same,CC50,HL-60(TB),> 100 µM
same,TGI,HCT-15,3.39 µM
same,GI50,HCT-15,1.65 µM
same,CC50,HCT-15,6.97 µM
same,GI50,CNS cancer,1.93 µM
same,CC50,CNS cancer,11.6 µM
same,GI50,786-0 [8],3.71 µM
same,TGI,HS 578T,10.1 µM
same,GI50,IGROV1,1.94 µM
same,CC50,IGROV1,7.75 µM
same,TGI,IGROV1,3.87 µM
same,TGI,MDA-MB-435 [9],3.31 µM
same,TGI,786-0 [10],12.6 µM
same,TGI,SF-539,4.77 µM
